Reference: paper PMC11207335, “In Vitro Metabolism and Transport Characteristics of Zastaprazan” (Pharmaceutics, 2024)
Values belong to the compound of their own block, whether it stands above or below them.

Tests used:
[1] = Metabolic stability of JP-1366 in human hepatocytes; assay type: in vitro ADME; details: cryopreserved human hepatocytes
Description: (§1) According to the manufacturer’s protocol, cryopreserved human, dog, monkey, mouse, and rat hepatocytes were purified and recovered. […] The metabolic reaction in each sample well was quenched by adding 120 μL of ice-cold acetonitrile.
(§2) Log-transformed relative responses of JP-1366 were plotted against incubation time, thereby obtaining the elimination slope (k) from the linear regression analysis. […] (1) t1 /2(min)=ln2/kelimination slope (2) Clint(mL/min/kg)=ln2/t1/2×mL incubation/hepatocyte (10^6 cells)×B×10^6 cells/g liver×A g liver/kg BW (3) Clhep(mL/min/kg)=Qh×Clint/Qh+Clint (4) HER=Clhep/Qh
(§3) Here, A means the liver weight parameters and has values of 25.7, 32, 30, 87.5, and 40; B means the cell number parameters and has values of 139, 215, 120, 135, and 117; Qh represents hepatic blood flow and has values of 20.7, 30.9, 43.6, 90, and 55.2 mL/min/kg for humans, dogs, monkeys, mice, and rats, respectively. Hepatic extraction ratios (HERs) of ≤0.25, 0.25–0.75, and ≥0.75 were regarded as low, moderate, and high, respectively.

human hepatocytes = assay: as above; assay type: in vitro ADME; details: human hepatocytes
Description: as §1, §2, §3

[2] = Metabolic stability of JP-1366 in monkey hepatocytes; assay type: in vitro ADME; details: cryopreserved monkey hepatocytes
Description: as §1, §2, §3

monkey hepatocytes = assay: as above; assay type: in vitro ADME; details: monkey hepatocytes
Description: as §1, §2, §3

[3] = Metabolic stability of JP-1366 in rat hepatocytes; assay type: in vitro ADME; details: cryopreserved rat hepatocytes
Description: as §1, §2, §3

rat hepatocytes = assay: Metabolic stability of JP-1366 in rat hepatocytes; assay type: in vitro ADME; details: rat hepatocytes
Description: as §1, §2, §3

A3 = A3 (Homo sapiens, UniProt P0DMS8); assay: BioPrint profiling, A3; details: BioPrint profiling (Eurofins CEREP)
Sequence of A3 (P0DMS8 whole entry): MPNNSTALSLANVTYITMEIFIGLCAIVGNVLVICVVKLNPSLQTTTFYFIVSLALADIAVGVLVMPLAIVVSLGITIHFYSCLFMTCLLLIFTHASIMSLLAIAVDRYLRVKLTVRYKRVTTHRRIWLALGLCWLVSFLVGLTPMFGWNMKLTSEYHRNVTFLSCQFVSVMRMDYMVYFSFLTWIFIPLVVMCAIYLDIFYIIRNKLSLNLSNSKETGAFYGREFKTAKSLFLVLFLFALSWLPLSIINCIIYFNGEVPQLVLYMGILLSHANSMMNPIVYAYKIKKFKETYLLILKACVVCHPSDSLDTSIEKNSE
Description: (§4) However, the involvement of multiple metabolizing enzymes such as CYP1A2, CYP2C9/19, CYP1A2, and CYP2D6 with a minor contribution in the formation of M1, M6, M19, and M21 and the involvement of UGT1A1 and UGT2B7 in the formation of M15 from M1 and the formation of 23 metabolites might reduce the risk of drug–drug interaction potential mediated by a single metabolizing enzyme and a main metabolite. Additionally, it may reduce the intersubject variability caused by genetic variations in these metabolizing enzymes.

α2B = α2B (Homo sapiens, UniProt P18089); assay: BioPrint profiling, α2B; details: BioPrint profiling (Eurofins CEREP)
Sequence of α2B (P18089 whole entry): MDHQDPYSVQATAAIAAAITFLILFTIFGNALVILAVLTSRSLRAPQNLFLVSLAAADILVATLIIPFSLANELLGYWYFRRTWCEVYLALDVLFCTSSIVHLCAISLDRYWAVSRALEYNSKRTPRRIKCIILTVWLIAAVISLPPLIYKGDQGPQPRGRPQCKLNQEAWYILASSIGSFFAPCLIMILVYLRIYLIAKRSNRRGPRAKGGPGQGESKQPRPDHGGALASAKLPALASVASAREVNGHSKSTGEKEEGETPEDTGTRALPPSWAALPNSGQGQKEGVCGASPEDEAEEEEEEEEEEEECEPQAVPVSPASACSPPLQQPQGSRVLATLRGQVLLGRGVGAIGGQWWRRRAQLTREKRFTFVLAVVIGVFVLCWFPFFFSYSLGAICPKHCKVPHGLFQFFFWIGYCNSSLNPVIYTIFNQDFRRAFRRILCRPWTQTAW

MT1 = MT1 (Homo sapiens, UniProt P48039); assay: BioPrint profiling, MT1; details: BioPrint profiling (Eurofins CEREP)
Sequence of MT1 (P48039 whole entry): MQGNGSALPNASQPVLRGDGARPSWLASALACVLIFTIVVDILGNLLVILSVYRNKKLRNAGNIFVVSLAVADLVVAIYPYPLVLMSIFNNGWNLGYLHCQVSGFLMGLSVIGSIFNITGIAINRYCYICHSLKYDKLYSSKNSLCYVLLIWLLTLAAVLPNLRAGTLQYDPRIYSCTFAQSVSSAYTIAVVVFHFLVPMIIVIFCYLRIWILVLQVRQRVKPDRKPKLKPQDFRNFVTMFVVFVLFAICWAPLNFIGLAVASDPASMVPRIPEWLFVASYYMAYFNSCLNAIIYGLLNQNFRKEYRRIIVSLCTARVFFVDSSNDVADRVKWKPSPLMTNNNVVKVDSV
Description: as §4

[4] = cited from earlier work
[5] = biological target: T1, human cDNA-expressed CYP1A2 (Homo sapiens, UniProt P05177); assay: Enzyme kinetics of JP-1366 metabolism in cDNA-expressed CYP1A2; assay type: in vitro ADME
T1 construct: purchased Corning Life Sciences
T1 sequence (P05177 1-516): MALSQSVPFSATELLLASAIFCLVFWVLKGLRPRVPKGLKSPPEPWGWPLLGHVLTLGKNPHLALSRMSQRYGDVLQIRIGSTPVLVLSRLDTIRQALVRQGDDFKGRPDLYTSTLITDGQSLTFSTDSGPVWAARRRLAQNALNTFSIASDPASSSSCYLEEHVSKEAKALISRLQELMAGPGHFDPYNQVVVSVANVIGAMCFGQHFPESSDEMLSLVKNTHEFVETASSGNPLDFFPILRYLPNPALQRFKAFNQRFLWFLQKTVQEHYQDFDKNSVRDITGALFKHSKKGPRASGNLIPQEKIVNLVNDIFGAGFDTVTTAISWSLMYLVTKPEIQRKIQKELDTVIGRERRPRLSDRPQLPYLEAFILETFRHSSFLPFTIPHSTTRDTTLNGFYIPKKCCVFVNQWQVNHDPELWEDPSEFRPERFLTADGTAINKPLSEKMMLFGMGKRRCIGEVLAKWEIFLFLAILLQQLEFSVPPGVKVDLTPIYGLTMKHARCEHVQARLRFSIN
Description: (§5) The reaction was initiated by adding 5 μL of NADPH-generating system in triplicate, and the mixture was further incubated for 30 min at 37 °C in a shaking water bath.
(§6) The concentrations of the metabolites were quantitated, and their formation rates (pmol/mg protein/min) were calculated by dividing the amounts of metabolites formed from the incubation with human liver microsomes and human cDNA-expressed CYP or UGT enzymes by the incubation time.

[6] = biological target: T2, human cDNA-expressed CYP2C9 (Homo sapiens, UniProt P11712); assay: Enzyme kinetics of JP-1366 metabolism in cDNA-expressed CYP2C9; assay type: in vitro ADME
T2 construct: purchased Corning Life Sciences
T2 sequence (P11712 whole entry): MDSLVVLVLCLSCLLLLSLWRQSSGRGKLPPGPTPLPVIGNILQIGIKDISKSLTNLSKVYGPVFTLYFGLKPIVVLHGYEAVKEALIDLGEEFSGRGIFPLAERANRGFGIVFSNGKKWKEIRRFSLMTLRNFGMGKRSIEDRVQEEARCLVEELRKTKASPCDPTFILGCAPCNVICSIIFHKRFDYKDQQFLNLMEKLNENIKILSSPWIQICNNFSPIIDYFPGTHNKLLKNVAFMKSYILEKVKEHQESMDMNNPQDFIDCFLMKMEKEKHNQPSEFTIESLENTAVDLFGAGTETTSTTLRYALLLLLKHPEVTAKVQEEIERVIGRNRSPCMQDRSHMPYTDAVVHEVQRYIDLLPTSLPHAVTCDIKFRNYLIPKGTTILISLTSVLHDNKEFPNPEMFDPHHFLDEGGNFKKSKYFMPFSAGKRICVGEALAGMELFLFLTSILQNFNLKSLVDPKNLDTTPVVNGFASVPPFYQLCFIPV
Description: as §5, §6

[7] = biological target: T3, human cDNA-expressed CYP2C19 (Homo sapiens, UniProt P33261); assay: Enzyme kinetics of JP-1366 metabolism in cDNA-expressed CYP2C19; assay type: in vitro ADME
T3 construct: purchased Corning Life Sciences
T3 sequence (P33261 whole entry): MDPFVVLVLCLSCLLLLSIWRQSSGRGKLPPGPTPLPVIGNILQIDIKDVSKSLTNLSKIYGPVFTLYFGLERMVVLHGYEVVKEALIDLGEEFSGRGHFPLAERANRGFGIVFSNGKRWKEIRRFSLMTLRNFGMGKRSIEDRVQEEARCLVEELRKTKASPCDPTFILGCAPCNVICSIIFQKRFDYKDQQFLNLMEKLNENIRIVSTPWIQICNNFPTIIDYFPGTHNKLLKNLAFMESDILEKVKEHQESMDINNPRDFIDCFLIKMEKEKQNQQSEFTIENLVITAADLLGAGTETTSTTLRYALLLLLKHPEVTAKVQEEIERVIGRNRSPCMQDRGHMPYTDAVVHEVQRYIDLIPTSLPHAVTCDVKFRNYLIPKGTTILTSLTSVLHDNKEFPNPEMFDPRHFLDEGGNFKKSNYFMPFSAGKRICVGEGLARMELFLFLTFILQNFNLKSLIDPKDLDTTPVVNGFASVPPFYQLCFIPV
Description: as §5, §6

H^+/K^+-ATPase = H^+/K^+-ATPase (Homo sapiens, UniProt P20648); details: read-out: IC50 for the H^+/K^+-ATPase inhibition; cited from earlier work
Sequence of H^+/K^+-ATPase (P20648 whole entry): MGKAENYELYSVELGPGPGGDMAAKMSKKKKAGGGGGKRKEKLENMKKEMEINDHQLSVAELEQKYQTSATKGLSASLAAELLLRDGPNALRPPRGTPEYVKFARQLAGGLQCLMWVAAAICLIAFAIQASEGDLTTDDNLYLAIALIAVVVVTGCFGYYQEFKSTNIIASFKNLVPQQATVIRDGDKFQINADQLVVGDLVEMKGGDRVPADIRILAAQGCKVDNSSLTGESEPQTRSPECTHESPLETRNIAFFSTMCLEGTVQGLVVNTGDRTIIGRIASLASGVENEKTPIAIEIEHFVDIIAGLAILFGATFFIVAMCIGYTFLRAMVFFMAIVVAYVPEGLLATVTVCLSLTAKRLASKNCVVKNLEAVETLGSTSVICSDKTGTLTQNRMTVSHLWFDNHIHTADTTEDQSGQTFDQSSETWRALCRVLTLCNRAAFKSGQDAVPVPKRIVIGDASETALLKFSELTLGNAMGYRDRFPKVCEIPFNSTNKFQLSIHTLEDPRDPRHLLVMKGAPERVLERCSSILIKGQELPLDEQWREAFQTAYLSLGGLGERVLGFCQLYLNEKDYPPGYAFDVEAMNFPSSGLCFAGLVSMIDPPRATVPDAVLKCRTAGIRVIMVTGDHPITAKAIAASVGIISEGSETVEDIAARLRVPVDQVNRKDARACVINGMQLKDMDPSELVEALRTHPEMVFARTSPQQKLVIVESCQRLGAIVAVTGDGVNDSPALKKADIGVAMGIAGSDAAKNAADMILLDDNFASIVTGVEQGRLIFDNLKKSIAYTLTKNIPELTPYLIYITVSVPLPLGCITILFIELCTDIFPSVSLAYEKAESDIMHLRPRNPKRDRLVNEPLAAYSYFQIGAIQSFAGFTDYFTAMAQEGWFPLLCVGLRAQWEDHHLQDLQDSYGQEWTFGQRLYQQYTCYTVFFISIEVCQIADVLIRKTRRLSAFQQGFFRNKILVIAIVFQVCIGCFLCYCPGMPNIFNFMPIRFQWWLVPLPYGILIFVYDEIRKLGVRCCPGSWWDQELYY
Sequence of H^+/K^+-ATPase (P51164 whole entry partner): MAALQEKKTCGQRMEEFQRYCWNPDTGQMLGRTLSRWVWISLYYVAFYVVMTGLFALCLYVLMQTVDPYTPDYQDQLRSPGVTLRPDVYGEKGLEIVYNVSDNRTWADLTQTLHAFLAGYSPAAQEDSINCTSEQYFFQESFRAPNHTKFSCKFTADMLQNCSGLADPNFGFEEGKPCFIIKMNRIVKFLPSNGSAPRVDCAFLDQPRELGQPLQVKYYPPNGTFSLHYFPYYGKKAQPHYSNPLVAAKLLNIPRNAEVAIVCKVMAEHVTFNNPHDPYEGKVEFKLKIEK

[8] = formation of the labelled metabolite from JP-1366, CYP1A2
[9] = formation of the labelled metabolite from JP-1366, CYP2C9
[10] = formation of the labelled metabolite from JP-1366, CYP2C19

CLint scaled at 1 µM ([1]; human hepatocytes, scaled with physiological parameters): 77.5 mL/min/kg
half-life at 1 µM ([1]; human): 63.9 min
CLhep (human hepatocytes): 16.3 mL/min/kg
HER (human hepatocytes): 0.79
CLint scaled at 1 µM ([2]; monkey hepatocytes, scaled with physiological parameters): 110 mL/min/kg
half-life at 1 µM ([2]; monkey): 48.4 min
CLhep (monkey hepatocytes): 31.1 mL/min/kg
HER (monkey hepatocytes): 0.72
CLint scaled at 1 µM ([3]; rat hepatocytes, scaled with physiological parameters): 138 mL/min/kg
half-life at 1 µM ([3]; rat): 47.1 min
CLhep (rat hepatocytes): 39.4 mL/min/kg
HER (rat hepatocytes): 0.71
IC50 (A3): 2.7 µM
IC50 (α2B): 1.2 µM
IC50 (MT1): 0.87 µM
SMILES: Cc1cccc(C)c1CNc1cc(C(=O)N2CCC2)cn2c(C)c(C)nc12 [JP-1366, 1-azetidinyl(8-(((2,6-dimethylphenyl)methyl)amino)-2,3-dimethylimidazo(1,2-a)pyridin-6-yl)methanone]
safety and tolerability ([4]; SAD up to 60 mg, MAD up to 40 mg, healthy male Korean subjects): safe and well tolerated
dose-normalized AUC among genetic variants of CYP2C19, CYP3A5, CYP2D6, UGT1A1, and UGT2B17 [4]: not significantly different

CLint [5, 8]: 0.0014 μL/min/pmol CYP
n (Hill coefficient) [5, 8]: 0.6
Contribution (%) ([5]; relative contribution of CYP1A2 to formation of the labelled metabolite): 0.1%
CLint [6, 9]: 0.14 μL/min/pmol CYP
n (Hill coefficient) [6, 9]: 1.2
Contribution (%) ([6]; relative contribution of CYP2C9 to formation of the labelled metabolite): 10.3%
CLint [7, 10]: 0.068 μL/min/pmol CYP
n (Hill coefficient) [7, 10]: 1.6
Contribution (%) ([7]; relative contribution of CYP2C19 to formation of the labelled metabolite): 0.1%
SMILES: Cc1cccc(CO)c1CNc1cc(C(=O)N2CCC2)cn2c(C)c(C)nc12 [M1, azetidin-1-yl(8-((2-(hydroxymethyl)-6-methyl-benzyl)amino)-2,3-dimethylimidazo[1,2-a]pyridin-6-yl)methanone]
IC50 (H^+/K^+-ATPase): 0.0665 µM
